Key:
human subcutaneous veins = test: Vascular tonicity of human subcutaneous veins ex vivo, myography; format: cell-based; conditions: for EC50 / Emax (% max. contraction vs. 80 mM KCL): human subcutaneous vein, n=1; for EC50: dose-response
Protocol: (§1) Human subcutaneous veins are isolated from healthy human skin derived from plastic surgery operative waste (abdominal plasty). On receipt the skin sample is held at 4° C. in a receptacle containing physiological saline solution (PSS) 1× at pH=7.4. Dissection, isolation and mounting of the veins are conducted in cold PSS pH=7.4 using straight forceps and a stereomicroscope. Once the vein is isolated and cleaned of surrounding fat and conjunctive tissue, a segment 2 mm in length and diameter of between 100 and 600 μm is mounted in the myograph chamber between two 40 μm tungsten wires attached to removable jaws connected to the tension sensor and held in physiological saline solution (PSS) at pH=7.4 and 37° C. To perform the myography study the vein is placed at working pre-tension (g) corresponding to physiological pressure of 18 mmHg. Pre-tensioning is obtained by mechanical action to draw apart the tungsten wires (40 μm). The viability of the vessel is verified by depolarising the membrane of the vessel smooth muscle cells by increasing the concentration of potassium in the chamber. To do so the PSS solution contained in each chamber is replaced by a solution containing 80 mM KCl at pH=7.4 and pre-heated to 37° C. This step must be repeated twice with 1×PSS washing to cause relaxation between each contraction. At this stage if there is no change in measured tension the isolated vessel is considered non-viable. Naratriptan was evaluated by dose-response (n=1) to determine its maximum contraction intensity (Emax) and strength (EC50). The vessel was treated with increasing successive doses of product added every 3 minutes to the myograph chamber. Tension data (g) are successively converted to: • Tension (mN) 1 g=9.81 mN • Tension applied to the vessel wall (mN/mm): by dividing the tension value in mN by twice the length of the vessel i.e. 4 mm.
(§2) Data are then expressed for the vasoconstrictor product in percentage contraction (%) taking as 100% the value obtained for treatment with 80 mM KCl at step 1 to verify vessel viability.
(§3) The method used for this study is identical to the method used in Example 1. To perform myographic studies the vein is placed at a pre-tension (g) corresponding to physiological pressure of 18 mmHg while the artery is placed at a pre-tension of 90 mmHg since an artery wall is thicker than a vein wall.
(§4) The myograph apparatus has four independent chambers. Therefore four vessel segments were mounted in parallel in each study. Each compound was subjected to dose-response evaluation for each type of vessel (n=1). The vessel was therefore treated with successive, increasing concentrations of product added every 3 minutes to the myograph chamber. The tested compounds were naratriptan, sumatriptan, almotriptan and Rizatriptan.

[1] = Release and penetration into dermatomized human skin (Franz cells); format: in vitro ADME; conditions: 2% in PBS; for Mass balance: mean
[2] = tested on: human subcutaneous artery; test: Vascular tonicity of human subcutaneous arteries ex vivo, myography; format: cell-based; conditions: for EC50: sc, dose-response
Protocol: as §1, §2, §3, §4

[3] = tested on: neurogenic inflammation induced in mouse ear; test: Neurogenic inflammation assay, mouse ear, reziniferatoxin (RTX); format: in vivo
Protocol: The compound was then tested in a water/ethanol carrier to increase solubility.

| EC50 (human subcutaneous veins) | EC50 ([2]; n=1) | SMILES | Emax (% max. contraction vs. 80 mM KCL) (human subcutaneous veins) | Total skin [1] | Mass balance [1] | Persistent effect on the human vein after successive washings, time after removal of the compound (human subcutaneous veins; Example 1, after removal of compound from the chamber) | Emax (% max. contraction vs. 80 mM KCl) ([2]; n=1) | Inhibition of neurogenic inflammation ([3]; 1% in acetone carrier, up to 45 minutes after treatment, single RTX application) | Inhibition of neurogenic inflammation ([3]; 1% topical in water/ethanol carrier, treatment time 15 minutes) | Total skin ([1]; listed as Naratriptan hydrochloride) | Emax (% max. contraction vs. 80 mM KCl) ([2]; n=1, listed as sumatriptan) |
| --- | --- | --- | --- | --- | --- | --- | --- | --- | --- | --- | --- |
| 62 nM |  | CN(C)CCc1c[nH]c2ccc(CS(=O)(=O)N3CCCC3)cc12 [Almotriptan, almotriptan] | 97% | 1.86 % applied dose | 94.16 % applied dose |  |  |  |  |  |  |
| 93 nM | 217 nM | CN(C)CCc1c[nH]c2ccc(Cn3cncn3)cc12 [Rizatriptan, rizatriptan] | 94% |  |  |  | 54% |  |  |  |  |
| 65 nM | 138 nM | CNS(=O)(=O)Cc1ccc2[nH]cc(CCN(C)C)c2c1 [Sumatriptan, sumatriptan] | 101% |  |  |  | 61% |  |  |  | 70% |

| SMILES | EC50 (human subcutaneous veins) | EC50 ([2]; n=1) | Emax (% max. contraction vs. 80 mM KCL) (human subcutaneous veins) | Total skin [1] | Mass balance [1] | Persistent effect on the human vein after successive washings, time after removal of the compound (human subcutaneous veins; Example 1, after removal of compound from the chamber) | Emax (% max. contraction vs. 80 mM KCl) ([2]; n=1) | Inhibition of neurogenic inflammation ([3]; 1% in acetone carrier, up to 45 minutes after treatment, single RTX application) | Inhibition of neurogenic inflammation ([3]; 1% topical in water/ethanol carrier, treatment time 15 minutes) | Total skin ([1]; listed as Naratriptan hydrochloride) | Emax (% max. contraction vs. 80 mM KCl) ([2]; n=1, listed as sumatriptan) |
| --- | --- | --- | --- | --- | --- | --- | --- | --- | --- | --- | --- |
| CNS(=O)(=O)CCc1ccc2[nH]cc(C3CCN(C)CC3)c2c1 [Naratriptan, N-methyl-2-[3-(1-methylpiperidin-4-yl)-1H-indol-5-yl]ethanesulfonamide] | 13 nM | 20 nM | 105% | 3.46 % applied dose | 91.22 % applied dose | ≤ 90 min | 82% | significantly inhibited | significant inhibition | 3.61 % applied dose |  |
